In PubChem BioAssay AID1963840 (Molecular Pharmacology Branch, DTP, NCI, 2024):

Test system: 695427-040-R-J1-PDC complex spheroid viability
Assay: Anticancer human tumor 695427-040-R-J1-PDC patient-derived colon adenocarcinoma cell line growth inhibition [POLQ]
Details: for IC50: curve of first compound; for viability, T/C: stronger effect = lower value
Method in brief: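 Patient-derived tumour cells were co-cultured with HUVEC and mesenchymal stem cells as multicellular spheroids at 37 °C. They were treated with POLQ inhibitors (novobiocin, ART-558, RP6685) alone or combined with other agents. Top concentrations were at or near clinical Cmax (otherwise 10 microM; SN-38 at 1 microM), decreasing in half-log steps.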

[1] = second compound 0.0316 µM, first compound 0.0316 µM
[2] = second compound 0.0316 µM, first compound 0.1 µM
[3] = second compound 0.1 µM, first compound 0.0316 µM
[4] = second compound 0.1 µM, first compound 0.1 µM
[5] = second compound 0.316 µM, first compound 0.0316 µM
[6] = second compound 0.316 µM, first compound 0.1 µM
[7] = second compound 1 µM, first compound 0.0316 µM
[8] = second compound 1 µM, first compound 0.1 µM
[9] = second compound 3.16 µM, first compound 0.0316 µM
[10] = second compound 3.16 µM, first compound 0.1 µM
[11] = second compound 10 µM, first compound 0.0316 µM
[12] = second compound 10 µM, first compound 0.1 µM
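Also: spheroids exposed to compounds for seven days.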
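For viability, T/C in this document: 100% = DMSO vehicle control viability.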

SMILES: CC1COCCN1c1cc(C2(S(C)(=N)=O)CC2)nc(-c2ccnc3[nH]ccc23)n1 (centres undefined) + Cc1cccc(N(C)C(=O)C2C(O)CCN2c2nc(C)cc(C(F)(F)F)c2C#N)c1
- IC50 (second compound 0.0316 µM): > 10 µM
- IC50 (second compound 0.1 µM): > 10 µM
- IC50 (second compound 0.316 µM): > 10 µM
- IC50 (second compound 1 µM): > 10 µM
- IC50 (second compound 3.16 µM): > 10 µM
- IC50 (second compound 10 µM): > 10 µM
- viability, T/C [1]: 104%
- viability, T/C [2]: 99.1%
- viability, T/C (second compound 0.0316 µM, first compound 0.316 µM): 101%
- viability, T/C (second compound 0.0316 µM, first compound 1 µM): 95.1%
- viability, T/C (second compound 0.0316 µM, first compound 3.16 µM): 101%
- viability, T/C (second compound 0.0316 µM, first compound 10 µM): 82.5%
- viability, T/C [3]: 107%
- viability, T/C [4]: 101%
- viability, T/C (second compound 0.1 µM, first compound 0.316 µM): 98.5%
- viability, T/C (second compound 0.1 µM, first compound 1 µM): 93.8%
- viability, T/C (second compound 0.1 µM, first compound 3.16 µM): 95.5%
- viability, T/C (second compound 0.1 µM, first compound 10 µM): 81.2%
- viability, T/C [5]: 105%
- viability, T/C [6]: 95.7%
- viability, T/C (second compound 0.316 µM, first compound 0.316 µM): 100%
- viability, T/C (second compound 0.316 µM, first compound 1 µM): 93.4%
- viability, T/C (second compound 0.316 µM, first compound 3.16 µM): 91.7%
- viability, T/C (second compound 0.316 µM, first compound 10 µM): 88.8%
- viability, T/C [7]: 91.1%
- viability, T/C [8]: 91.6%
- viability, T/C (second compound 1 µM, first compound 0.316 µM): 101%
- viability, T/C (second compound 1 µM, first compound 1 µM): 103%
- viability, T/C (second compound 1 µM, first compound 3.16 µM): 107%
- viability, T/C (second compound 1 µM, first compound 10 µM): 80.9%
- viability, T/C [9]: 103%
- viability, T/C [10]: 89.8%
- viability, T/C (second compound 3.16 µM, first compound 0.316 µM): 89.7%
- viability, T/C (second compound 3.16 µM, first compound 1 µM): 89.9%
- viability, T/C (second compound 3.16 µM, first compound 3.16 µM): 97%
- viability, T/C (second compound 3.16 µM, first compound 10 µM): 73.9%
- viability, T/C [11]: 93.1%
- viability, T/C [12]: 96.8%
- viability, T/C (second compound 10 µM, first compound 0.316 µM): 91.9%
- viability, T/C (second compound 10 µM, first compound 1 µM): 87.8%
- viability, T/C (second compound 10 µM, first compound 3.16 µM): 92.8%
- viability, T/C (second compound 10 µM, first compound 10 µM): 67.1%

SMILES: Cn1ncnc1[C@H]1c2n[nH]c(=O)c3cc(F)cc(c23)N[C@@H]1c1ccc(F)cc1 + Cc1cccc(N(C)C(=O)C2C(O)CCN2c2nc(C)cc(C(F)(F)F)c2C#N)c1
- IC50 (second compound 0.0316 µM): > 0.1 µM
- IC50 (second compound 0.1 µM): > 0.1 µM
- IC50 (second compound 0.316 µM): > 0.1 µM
- IC50 (second compound 1 µM): > 0.1 µM
- IC50 (second compound 3.16 µM): > 0.1 µM
- IC50 (second compound 10 µM): > 0.1 µM
- viability, T/C (second compound 0.0316 µM, first compound 0.000316 µM): 99.1%
- viability, T/C (second compound 0.0316 µM, first compound 0.001 µM): 97.2%
- viability, T/C (second compound 0.0316 µM, first compound 0.00316 µM): 102%
- viability, T/C (second compound 0.0316 µM, first compound 0.01 µM): 99%
- viability, T/C [1]: 99.4%
- viability, T/C [2]: 96.8%
- viability, T/C (second compound 0.1 µM, first compound 0.000316 µM): 108%
- viability, T/C (second compound 0.1 µM, first compound 0.001 µM): 91.2%
- viability, T/C (second compound 0.1 µM, first compound 0.00316 µM): 98.8%
- viability, T/C (second compound 0.1 µM, first compound 0.01 µM): 102%
- viability, T/C [3]: 102%
- viability, T/C [4]: 96.7%
- viability, T/C (second compound 0.316 µM, first compound 0.000316 µM): 102%
- viability, T/C (second compound 0.316 µM, first compound 0.001 µM): 102%
- viability, T/C (second compound 0.316 µM, first compound 0.00316 µM): 96.6%
- viability, T/C (second compound 0.316 µM, first compound 0.01 µM): 105%
- viability, T/C [5]: 107%
- viability, T/C [6]: 94.7%
- viability, T/C (second compound 1 µM, first compound 0.000316 µM): 99.2%
- viability, T/C (second compound 1 µM, first compound 0.001 µM): 98.3%
- viability, T/C (second compound 1 µM, first compound 0.00316 µM): 89.5%
- viability, T/C (second compound 1 µM, first compound 0.01 µM): 93.2%
- viability, T/C [7]: 99.3%
- viability, T/C [8]: 94.6%
- viability, T/C (second compound 3.16 µM, first compound 0.000316 µM): 88.9%
- viability, T/C (second compound 3.16 µM, first compound 0.001 µM): 101%
- viability, T/C (second compound 3.16 µM, first compound 0.00316 µM): 92.5%
- viability, T/C (second compound 3.16 µM, first compound 0.01 µM): 101%
- viability, T/C [9]: 102%
- viability, T/C [10]: 88.8%
- viability, T/C (second compound 10 µM, first compound 0.000316 µM): 89.2%
- viability, T/C (second compound 10 µM, first compound 0.001 µM): 87.4%
- viability, T/C (second compound 10 µM, first compound 0.00316 µM): 87.8%
- viability, T/C (second compound 10 µM, first compound 0.01 µM): 88.6%
- viability, T/C [11]: 93.3%
- viability, T/C [12]: 90.4%
